# Results: US11505558B1, “Antiviral heterocyclic compounds” (Enanta Pharmaceuticals, Inc., priority 2019, dated 2022)
# Key:
# [1] = test system: recombinant HMPV CAN97-83 (MPV-GFP1); assay: HMPV antiviral assay (MPV-GFP1 eGFP fluorescence in Vero E6 cells); assay type: cell-based; conditions: human metapneumovirus, Vero C1008, 120 h, read-out: HMPV EC50
# Summary of the method: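 Vero E6 cells in serum-free OptiMEM with 0.5 μg/mL TPCK-trypsin infected with eGFP-expressing HMPV CAN97-83 (MPV-GFP1) at MOI 0.05. 8-point […] ½-step dilutions from 8 or 2 μM, 0.5% DMSO, 5 days at 32 °C. eGFP fluorescence normalized to infected untreated wells; EC50 from four-parameter logistic fit.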
# [2] = test system: genotype A, "Long" strain RSV; assay: RSV-A assay (CPE, ATPlite readout in Hep-2 cells); assay type: cell-based; conditions: human respiratory syncytial virus, HEp-2, Hep-2 cells, genotype A "Long" strain RSV, MOI 0.1; read-out: Human RSV-A (“Long” strain) EC50
# Summary of the method: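 Protection from RSV-induced cytopathic effect, measured as ATPlite luminescence after 5 days, gave EC50 values. Assay used genotype A Long strain at MOI 0.1 on Hep-2 cells seeded at 8,000/well in DMEM growth media with 10% FBS; compounds tested as 2-fold dilutions in duplicate.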
SMILES,EC50 [1] [nM],EC50 [2] [nM]
CCc1cnc2c(OC)cc(C(=O)NC[C@](O)(c3cc4c(c(-c5ccc(F)cc5)n3)OC[C@]4(C)C(N)=O)C(F)(F)F)cc2c1 [Example 262],> 500,< 200
CC(=O)Nc1cc(C(=O)NC[C@](O)(c2cc3c(c(-c4ccc(F)cc4)n2)OC[C@]3(C)C(N)=O)C(F)(F)F)cc2cccnc12 [Example 393],< 500,< 200
Cc1ncoc1-c1ccc(C(=O)NC[C@](O)(c2cc3c(c(-c4ccc(F)cc4)n2)OC[C@]3(C)C(N)=O)C(F)(F)F)cc1OC1CC1 [Example 180],> 500,< 200
C[C@]1(C(N)=O)COc2c1cc([C@@](O)(CNC(=O)c1cc(Cl)c3nc(N)sc3c1)C(F)(F)F)nc2-c1ccc(F)cc1 [Example 633],< 500,< 200
CC(C)Oc1cc(C(=O)NC[C@](O)(c2cc3c(c(-c4ccc(F)cc4)n2)OC[C@]3(C)C(N)=O)C(F)(F)F)cc2sc(N)nc12 [Example 538],> 500,< 200
C[C@]1(C(N)=O)COc2c1cc([C@@](O)(CNC(=O)c1cc(OC3CC3)c3ncc(Cl)cc3c1)C1CC1)nc2-c1ccc(F)cc1 [Example 530],< 500,< 200
COc1cc(C(=O)NC[C@](O)(c2cc3c(c(-c4ccc(F)cc4)n2)OC[C@]3(C)C(N)=O)C(F)(F)F)cc2cc(C)cnc12 [Example 255],< 500,< 200
C[C@]1(C(N)=O)COc2c1cc([C@@](O)(CNC(=O)c1ccc(OC3CC3)c(OC3CC3)c1)C(F)(F)F)nc2-c1ccc(C(F)(F)F)cc1 [Example 93],> 500,< 200
COc1cc(C(=O)NC[C@](O)(c2cc3c(c(-c4ccc(F)c(Cl)c4)n2)OC[C@]3(C)C(N)=O)C2CC2)cc2cc(C3CC3)cnc12 [Example 523],< 500,< 200
Cc1cnc2c(O)cc(C(=O)NC[C@](O)(c3cc4c(c(-c5ccc(F)cc5)n3)OC[C@]4(C)C(N)=O)C(F)(F)F)cc2c1 [Example 252],> 500,< 200
Cc1cnc2c(Nc3cncnc3)cc(C(=O)NC[C@](O)(c3cc4c(c(-c5ccc(F)cc5)n3)OC[C@]4(C)C(N)=O)C(F)(F)F)cc2c1 [Example 548],> 500,< 200
C[C@]1(C(N)=O)COc2c1cc([C@@](O)(CNC(=O)c1cc(Cl)c3ncccc3c1)C1CC1)nc2-c1ccc(F)cc1 [Example 281],< 500,< 200
C[C@]1(C(=O)NCc2ccco2)COc2c1cc([C@@](O)(CNC(=O)c1cc(OC3CC3)c3ncccc3c1)C(F)(F)F)nc2-c1ccc(F)cc1 [Example 475],< 500,< 200
COc1nc2c(OC)cc(C(=O)NC[C@](O)(c3cc4c(c(-c5ccc(F)cc5)n3)OC[C@]4(C)C(N)=O)C(F)(F)F)cc2s1 [Example 445],< 500,< 200
COc1cc(C(=O)NC[C@](O)(c2cc3c(c(-c4ccc(F)cc4)n2)OC[C@]3(C)C(=O)NCC(C)(C)O)C(F)(F)F)cc2cn(C)nc12 [Example 635],< 500,< 200
CCNC(=O)[C@@]1(C)COc2c1cc([C@@](O)(CNC(=O)c1cc(OC)c3ncccc3c1)C(F)(F)F)nc2-c1ccc(F)cc1 [Example 56],< 500,< 200
Cc1cnc2c(NC(=O)C3(C)CC3)cc(C(=O)NC[C@](O)(c3cc4c(c(-c5ccc(F)cc5)n3)OC[C@]4(C)C(N)=O)C(F)(F)F)cc2c1 [Example 552],< 500,< 200
C[C@]1(C(=O)NCCO)COc2c1cc([C@@](O)(CNC(=O)c1cc(OC3CC3)c3ncccc3c1)C(F)(F)F)nc2-c1ccc(F)cc1 [Example 465],< 500,< 200
C[C@]1(C(N)=O)COc2c1cc([C@](O)(CNC(=O)c1cc(OC3CC3)c3ncccc3c1)C(F)(F)F)nc2-c1ccc(F)c(F)c1 [Example 80],< 500,< 200
C[C@]1(C(N)=O)COc2c1cc([C@@](O)(CNC(=O)c1cc(NC(=O)c3ncco3)c3ncccc3c1)C(F)(F)F)nc2-c1ccc(F)cc1 [Example 398],< 500,< 200
C[C@]1(C(N)=O)COc2c1cc([C@@](O)(CNC(=O)c1ccc(OC3CC3)c(OC3CC3)c1)C(F)(F)F)nc2-c1ccc(F)c(C(F)(F)F)c1 [Example 96],< 500,< 200
C[C@]1(C(N)=O)COc2c1cc([C@@](O)(CNC(=O)c1cc(OC(F)(F)F)c3nc(N)sc3c1)C(F)(F)F)nc2-c1ccc(F)c(Cl)c1 [Example 542],< 500,< 200
C[C@]1(C(N)=O)COc2c1cc([C@@](O)(CNC(=O)c1cc(OC(F)F)c3nc(N)sc3c1)C(F)(F)F)nc2-c1ccc(F)cc1 [Example 537],> 500,< 200
CC(C)(Oc1cc(C(=O)NC[C@](O)(c2cc3c(c(-c4ccc(F)cc4)n2)OC[C@]3(C)C(N)=O)C(F)(F)F)cc2cccnc12)C(N)=O [Example 380],> 500,< 200

SMILES,EC50 [1] [nM],EC50 [2] [nM]
Cc1cnc(-c2ccc(C(=O)NC[C@](O)(c3cc4c(c(-c5ccc(F)cc5)n3)OC[C@]4(C)C(N)=O)C(F)(F)F)cc2OC2CC2)o1 [Example 179],> 500,< 200
COc1cc(C(=O)NC[C@](O)(c2cc3c(c(-c4ccc(F)cc4)n2)OC[C@]3(C)C(N)=O)C(F)(F)F)ccc1-c1ocnc1C [Example 183],> 500,< 200
C[C@]1(C(N)=O)COc2c1cc([C@@](O)(CNC(=O)c1cc(Nc3cccnc3)c3ncccc3c1)C(F)(F)F)nc2-c1ccc(F)cc1 [Example 339],> 500,< 200
COc1cc(C(=O)NC[C@](O)(c2cc3c(c(-c4ccc(F)c(Cl)c4)n2)OC[C@]3(C)C(N)=O)C(F)(F)F)cc2cc(C)cnc12 [Example 257],< 500,< 200
C[C@@H](O)COc1ccc(C(=O)NC[C@](O)(c2cc3c(c(-c4ccc(F)cc4)n2)OC[C@]3(C)C(N)=O)C(F)(F)F)cc1OC1CC1 [Example 289],> 500,< 200
COc1cc(C(=O)NC[C@](O)(c2cc3c(c(-c4ccc(F)cc4)n2)OC[C@]3(C)CNCC2CC2)C(F)(F)F)ccn1 [Example 37],> 500,> 200
COc1cc(C(=O)NC[C@](O)(c2cc3c(c(-c4ccc(F)cc4)n2)OC[C@]3(C)C(=O)NC2(C#N)CC2)C(F)(F)F)cc2cccnc12 [Example 451],< 500,< 200
C[C@]1(C(N)=O)COc2c1cc([C@@](O)(CNC(=O)c1cc(OC3CC3)c3nc(N)sc3c1)C(F)(F)F)nc2-c1ccc(F)cc1 [Example 543],< 500,< 200
Cc1cnc2ccc(C(=O)NC[C@](O)(c3cc4c(c(-c5ccc(F)cc5)n3)OC[C@]4(C)C(N)=O)C(F)(F)F)cc2c1 [Example 524],< 500,< 200
C[C@]1(C(N)=O)COc2c1cc([C@@](O)(CNC(=O)c1cc(Nc3cncnc3)c3ncccc3c1)C(F)(F)F)nc2-c1ccc(F)cc1 [Example 342],> 500,< 200
COc1ncc(C(=O)NC[C@](O)(c2cc3c(c(-c4ccc(F)cc4)n2)OC[C@]3(C)CNCC2CC2)C(F)(F)F)s1 [Example 36],> 500,> 200
C[C@]1(C(N)=O)COc2c1cc([C@@](O)(CNC(=O)c1ccc(OC3CC3)c(C3CC3)c1)C(F)(F)F)nc2-c1ccc(F)cc1 [Example 123],> 500,< 200
Cc1cncc(-c2cc(C(=O)NC[C@](O)(c3cc4c(c(-c5ccc(F)cc5)n3)OC[C@]4(C)C(N)=O)C(F)(F)F)ccc2OC2CC2)c1 [Example 103],> 500,< 200
C[C@]1(C(=O)N[C@H]2C[C@@H](O)C2)COc2c1cc([C@@](O)(CNC(=O)c1cc(OC3CC3)c3ncccc3c1)C(F)(F)F)nc2-c1ccc(F)cc1 [Example 466],< 500,< 200
Cc1ccc2cc(C(=O)NC[C@](O)(c3cc4c(c(-c5ccc(F)cc5)n3)OC[C@]4(C)C(N)=O)C(F)(F)F)cc(OC3CC3)c2n1 [Example 223],< 500,< 200
COc1cc(C(=O)NC[C@](O)(c2cc3c(c(-c4ccc(F)cc4)n2)OC[C@]3(C)C(N)=O)C(F)(F)F)cc2cc(C3CC3)cnc12 [Example 519],< 500,< 200
COc1cc(C(=O)NC[C@](C)(O)c2cc3c(c(-c4ccc(F)cc4)n2)OC[C@]3(C)C(N)=O)cc2cccnc12 [Example 219],> 500,< 200
Cc1cc2cc(C(=O)NC[C@](O)(c3cc4c(c(-c5ccc(F)cc5)n3)OC[C@]4(C)C(N)=O)C(F)(F)F)ccc2nn1 [Example 616],< 500,< 200
COc1cc(C(=O)NC[C@](O)(c2cc3c(c(-c4ccc(F)cc4)n2)OC[C@]3(C)CC(N)=O)C(F)(F)F)cc2cccnc12 [Example 75],> 500,< 200
Cc1cnc2c(Nc3cnccn3)cc(C(=O)NC[C@](O)(c3cc4c(c(-c5ccc(F)cc5)n3)OC[C@]4(C)C(N)=O)C(F)(F)F)cc2c1 [Example 547],> 500,< 200
C[C@]1(C(N)=O)COc2c1cc([C@@](O)(CNC(=O)c1ccc(OC3CC3)c(OC3CC3)c1)C(F)(F)F)nc2-c1ccc(C#N)cc1 [Example 94],< 500,< 200
CC1(NC(=O)Nc2cc(C(=O)NC[C@](O)(c3cc4c(c(-c5ccc(F)cc5)n3)OC[C@]4(C)C(N)=O)C(F)(F)F)cc3cccnc23)CC1 [Example 411],< 500,< 200
COc1cc(C(=O)NC[C@](O)(c2cc3c(c(-c4ccc(F)cc4)n2)OC[C@]3(C)C(N)=O)C2CC2)cc2cc(C3CC3)cnc12 [Example 522],< 500,< 200
